Results on five compounds are retold here after ChEMBL document CHEMBL1201862, “PubChem BioAssay data set” (2004).

What is called EC50 is the concentration that produces a half-maximal response. What is called IC50 is the concentration at which inhibition is half-maximal. By AC50 is commonly meant the concentration giving half of the maximal activity seen.

The source made the active and inactive calls.

Assay [1] addresses T1, Insulin-degrading enzyme (Homo sapiens, UniProt P14735).
T1 sequence (P14735 whole entry): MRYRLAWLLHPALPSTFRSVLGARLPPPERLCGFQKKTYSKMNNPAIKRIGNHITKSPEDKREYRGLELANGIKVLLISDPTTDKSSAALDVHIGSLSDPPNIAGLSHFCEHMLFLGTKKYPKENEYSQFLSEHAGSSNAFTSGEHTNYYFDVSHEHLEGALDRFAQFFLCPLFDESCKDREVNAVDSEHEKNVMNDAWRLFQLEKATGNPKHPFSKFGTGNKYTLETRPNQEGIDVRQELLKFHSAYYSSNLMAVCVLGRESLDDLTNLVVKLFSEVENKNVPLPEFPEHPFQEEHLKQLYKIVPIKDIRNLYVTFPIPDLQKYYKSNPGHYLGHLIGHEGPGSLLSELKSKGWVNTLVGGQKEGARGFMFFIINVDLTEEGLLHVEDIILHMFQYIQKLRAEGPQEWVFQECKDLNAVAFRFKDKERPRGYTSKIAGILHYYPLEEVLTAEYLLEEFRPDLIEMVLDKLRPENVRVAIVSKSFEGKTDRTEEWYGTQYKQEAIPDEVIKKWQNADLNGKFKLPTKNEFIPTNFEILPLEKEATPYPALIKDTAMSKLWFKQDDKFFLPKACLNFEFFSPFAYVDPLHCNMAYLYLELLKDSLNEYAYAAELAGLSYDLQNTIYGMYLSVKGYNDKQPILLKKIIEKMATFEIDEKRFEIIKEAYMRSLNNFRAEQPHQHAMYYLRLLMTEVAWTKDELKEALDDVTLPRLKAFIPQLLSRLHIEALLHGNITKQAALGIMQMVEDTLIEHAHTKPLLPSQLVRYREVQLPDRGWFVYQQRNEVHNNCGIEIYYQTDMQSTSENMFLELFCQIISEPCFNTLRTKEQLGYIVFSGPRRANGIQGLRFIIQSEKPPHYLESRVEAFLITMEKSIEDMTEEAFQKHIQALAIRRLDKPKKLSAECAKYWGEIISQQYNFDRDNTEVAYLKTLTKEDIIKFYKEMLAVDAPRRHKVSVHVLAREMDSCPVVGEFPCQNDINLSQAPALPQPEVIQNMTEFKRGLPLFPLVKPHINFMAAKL
The experiment in a line: activators of endogenous IDE in HEK cells, dose response, cell-based, fluorescence polarization (AID 588439). The format is functional. For orientation: Polarisation of emitted light reports the rotation of a fluorescent probe.

Assay [2] relates to HEK293. The experiment in a line: HEK cell cytotoxicity by LDH release, dose response, cytotoxicity control for IDE activator project, fluorescence, HEK cells (AID 588440).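 Also: cytotoxicity by LDH release measuring loss of membrane integrity.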 The format is functional, cell-based. To be noted: Homo sapiens.
Assay [3] has as its target T2, Apoptotic protease-activating factor 1 (Homo sapiens, UniProt O14727).
T2 sequence (O14727 whole entry): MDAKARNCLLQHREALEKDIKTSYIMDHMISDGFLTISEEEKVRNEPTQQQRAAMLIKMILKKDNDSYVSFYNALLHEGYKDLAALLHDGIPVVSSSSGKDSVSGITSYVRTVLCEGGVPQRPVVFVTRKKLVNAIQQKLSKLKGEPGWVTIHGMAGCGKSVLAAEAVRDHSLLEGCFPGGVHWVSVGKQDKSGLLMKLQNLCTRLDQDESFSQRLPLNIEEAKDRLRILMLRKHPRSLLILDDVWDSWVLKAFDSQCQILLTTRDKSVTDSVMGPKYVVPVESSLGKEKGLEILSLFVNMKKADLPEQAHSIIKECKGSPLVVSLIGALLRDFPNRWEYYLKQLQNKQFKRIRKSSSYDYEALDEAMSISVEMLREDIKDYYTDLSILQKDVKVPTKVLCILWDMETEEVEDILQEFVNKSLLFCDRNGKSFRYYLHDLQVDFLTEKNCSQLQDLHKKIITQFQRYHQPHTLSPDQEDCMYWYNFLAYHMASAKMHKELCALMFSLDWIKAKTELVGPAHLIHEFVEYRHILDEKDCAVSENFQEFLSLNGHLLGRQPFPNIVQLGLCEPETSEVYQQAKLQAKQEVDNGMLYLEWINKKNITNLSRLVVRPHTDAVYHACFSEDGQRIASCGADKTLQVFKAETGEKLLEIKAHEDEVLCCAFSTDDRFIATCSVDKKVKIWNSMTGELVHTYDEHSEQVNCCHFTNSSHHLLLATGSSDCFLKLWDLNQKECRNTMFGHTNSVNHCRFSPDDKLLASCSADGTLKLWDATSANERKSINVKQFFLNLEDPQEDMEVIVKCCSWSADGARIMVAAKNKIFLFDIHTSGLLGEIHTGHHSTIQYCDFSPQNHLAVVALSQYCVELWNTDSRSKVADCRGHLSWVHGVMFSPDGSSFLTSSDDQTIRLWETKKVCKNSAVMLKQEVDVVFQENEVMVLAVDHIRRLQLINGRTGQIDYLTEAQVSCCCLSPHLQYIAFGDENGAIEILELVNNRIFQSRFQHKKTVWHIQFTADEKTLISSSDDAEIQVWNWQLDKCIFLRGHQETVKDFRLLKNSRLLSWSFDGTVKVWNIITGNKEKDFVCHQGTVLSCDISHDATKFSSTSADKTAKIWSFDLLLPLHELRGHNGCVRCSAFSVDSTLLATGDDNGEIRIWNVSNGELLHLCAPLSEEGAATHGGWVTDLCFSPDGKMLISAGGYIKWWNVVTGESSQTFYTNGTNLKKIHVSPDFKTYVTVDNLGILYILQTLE
Type of assay: functional.

Assay [4] addresses T1, Insulin-degrading enzyme. The experiment in a line: activators of recombinant IDE enzyme, dose response, counter-screen for IDE activator project, biochemical, fluorescence polarization (AID 588681). For orientation: A counterscreen serves to expose hits that act by an unwanted route or on another target.
Assay [5] has as its system HEK293. Briefly: optical interference in Abeta FP readout, dose response, artefact control for IDE activator project, biochemical, fluorescence polarization (AID 588442). Type of assay: functional, cell-based. To be noted: Homo sapiens.
In a further assay the target is ORF 73 (Human herpesvirus 8, UniProt O40947). The experiment in a line: inhibitors of C-LANA binding to LBS DNA, dose response, biochemical, fluorescence polarization, cherry-picked samples (AID 504725).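 Also: fluorescence polarization of a labeled DNA duplex reporting LANA DNA binding; potency is for inhibitors that block LANA binding to the DNA.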 Also noted: species or system Human gammaherpesvirus 8.
Assay [6] has as its target UDP-galactopyranose mutase (Mycobacterium tuberculosis, UniProt P9WIQ1). Briefly: Inhibitors of Mycobacterium tuberculosis UDP-galactopyranose mutase (UGM) enzyme Measured in Biochemical System Using Plate Reader - 2105-02_Inhibitor_Dose_CherryPick_Activity. [Related pubchem assays (depositor defined):AID504439].
Another assay has as its system Candida albicans. The experiment in a line: growth inhibition of resistant C. albicans, dose response, CaCi-8, fluconazole, Alamar Blue, dry powder (AID 488807). The format is functional, organism-based. On the technique in general: Alamar Blue is a resazurin reagent that responds to reducing activity.
The nature of assay [7]: cytotoxicity in HEK-293T NF-kB-Luc cells, dose response, cytotoxicity control for B/T-cell NF-kB inhibitor project, cell-based, uHTS hits (AID 489019).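 Also: IC50 reflects cytotoxicity as loss of cell viability.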 Type of assay: functional.
A short description of assay [8]: Luminescence Cell-Based Dose Response HTS to Identify Inhibitors of 5'UTR Stem-Loop Driven Prion Protein mRNA Translation in H4 Neuroglioblastoma Cells. [Related pubchem assays: 1827 (Project Summary), 1813 (Primary HTS)]. Type of assay: functional.
Assay [9] is described as follows: inhibitors of clade B AD8 Env fusion, dose response, cell-based, cherry-pick (AID 652062).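 Also: luciferase signal from cell-cell fusion driven by HIV-1 clade B AD8 Env; potency is for inhibitors of fusion seen as a drop in luminescence.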 Type of assay: functional.
Assay [10] is described as follows: off-target signal loss in HeLa-CEM21 co-culture – HeLa F-luc CTL cells, cherry-picked, counter-screen for HIV-1 Env fusion inhibitor project, dose response (AID 652040).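 Also: potency for signal decrease marking cytotoxic or nonspecific inhibition.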 Type of assay: functional, cell-based.
Assay [11] in a line: CEM21 lymphoblast cell cytotoxicity, dose response, cytotoxicity control for viral fusion inhibitor project, CellTiter-Glo luminescence, cherry-picked (AID 652042).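 Also: potency for signal decrease meaning cytotoxicity.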 The format is functional, cell-based.
Assay [12] in a line: inhibitors of firefly luciferase expression or activity, dose response, H4 neuroglioma cells, luminescence (AID 1990). The format is functional, cell-based.
Assay [13] is described as follows: inhibitors of SNCA 5'UTR-driven reporter translation, confirmation, H4 neuroglioma cells, luminescence (AID 1988). Type of assay: functional, cell-based.
The subject of another assay is Jurkat. Briefly: antigen receptor-induced NF-kB inhibitors, dose response, Jurkat, luciferase reporter, luminescence, B- and T-cell (AID 489004).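 Also: NF-kB luciferase reporter Jurkat cells stimulated with PMA plus ionomycin.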 Type of assay: functional, cell-based. As to conditions: Homo sapiens.
In assay [14] the target is Beta-adrenergic receptor kinase 1 (Homo sapiens, UniProt P25098). The experiment in a line: GRK2 inhibitors displacing RNA aptamer, dose response, biochemical, flow cytometry beads, FAM-aptamer, powder set 1 (AID 588720).
For a further assay, the target named is Keap1/Nrf2 (Homo sapiens, UniProt Q14145). The experiment in a line: Keap1-Nrf2 protein-protein interaction inhibitors, dose response, biochemical, fluorescence polarization, cherry-picked samples (AID 588683).
The next assay has as its target Beta Lactamase (Pseudomonas aeruginosa, UniProt Q932Y6). The experiment in a line: beta-lactamase reporter inhibitor potency, dose response, artefact control for TLR9-MyD88 binding inhibitor project, BLA reporter cells, FRET fluorescence (AID 588341).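 Also: cell based assay in CHO-K1 cells stably expressing beta-lactamase.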 Type of assay: cell-based.
For the next assay, the system named is CHO. The experiment in a line: cytotoxicity in TLR9-MyD88 CHO cells, dose response, cytotoxicity control for TLR9-MyD88 binding inhibitor project, cell-based, luminescence (AID 588339).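 Also: CHO cells stably coexpressing TLR9 and MyD88 fusions from primary screen; compound exposure lasted 48 hours before viability readout.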 The format is functional, hamster. As to conditions: Cricetulus griseus.
Assay [15] addresses Dual specificity tyrosine-phosphorylation-regulated kinase 1A (Rattus norvegicus, UniProt Q63470). Type of assay: biochemical, Homo sapiens.

Chain of ORF 73 (O40947 whole entry): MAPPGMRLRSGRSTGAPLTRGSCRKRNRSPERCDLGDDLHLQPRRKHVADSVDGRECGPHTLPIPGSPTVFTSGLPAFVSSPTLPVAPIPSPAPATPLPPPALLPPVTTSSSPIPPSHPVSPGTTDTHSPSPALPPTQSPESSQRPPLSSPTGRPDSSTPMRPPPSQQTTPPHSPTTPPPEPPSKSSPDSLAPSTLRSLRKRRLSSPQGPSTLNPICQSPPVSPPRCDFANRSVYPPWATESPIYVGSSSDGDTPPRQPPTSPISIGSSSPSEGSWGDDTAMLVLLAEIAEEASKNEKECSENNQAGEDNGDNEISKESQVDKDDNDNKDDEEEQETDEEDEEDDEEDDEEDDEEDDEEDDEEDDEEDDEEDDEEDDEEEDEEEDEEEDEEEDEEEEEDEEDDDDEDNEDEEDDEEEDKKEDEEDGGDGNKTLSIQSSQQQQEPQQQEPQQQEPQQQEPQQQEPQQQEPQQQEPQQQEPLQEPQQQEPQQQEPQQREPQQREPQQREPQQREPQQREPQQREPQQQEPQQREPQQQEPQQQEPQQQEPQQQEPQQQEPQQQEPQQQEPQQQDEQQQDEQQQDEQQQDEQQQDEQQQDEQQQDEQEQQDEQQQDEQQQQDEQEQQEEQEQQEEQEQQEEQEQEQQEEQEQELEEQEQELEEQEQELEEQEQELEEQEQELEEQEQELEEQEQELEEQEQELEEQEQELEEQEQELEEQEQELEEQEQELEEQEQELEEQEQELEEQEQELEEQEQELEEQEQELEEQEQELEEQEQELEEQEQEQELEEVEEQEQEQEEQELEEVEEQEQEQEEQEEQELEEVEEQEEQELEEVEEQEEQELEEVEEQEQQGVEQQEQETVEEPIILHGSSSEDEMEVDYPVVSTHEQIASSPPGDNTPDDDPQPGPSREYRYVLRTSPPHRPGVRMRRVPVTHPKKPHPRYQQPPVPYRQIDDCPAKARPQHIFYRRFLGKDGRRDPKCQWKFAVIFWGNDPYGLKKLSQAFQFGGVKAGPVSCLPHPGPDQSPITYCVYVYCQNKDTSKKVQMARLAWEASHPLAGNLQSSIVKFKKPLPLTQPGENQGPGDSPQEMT
Chain of Beta Lactamase (Q932Y6 whole entry, the tested form may be a part): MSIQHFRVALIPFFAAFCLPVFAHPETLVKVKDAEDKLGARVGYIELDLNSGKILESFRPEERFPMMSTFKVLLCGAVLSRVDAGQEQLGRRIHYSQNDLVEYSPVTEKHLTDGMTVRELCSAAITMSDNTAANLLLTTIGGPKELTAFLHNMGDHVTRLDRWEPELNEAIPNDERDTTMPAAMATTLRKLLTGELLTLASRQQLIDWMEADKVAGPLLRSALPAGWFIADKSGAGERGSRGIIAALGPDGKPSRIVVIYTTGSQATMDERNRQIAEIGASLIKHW
Chain of UDP-galactopyranose mutase (P9WIQ1 whole entry): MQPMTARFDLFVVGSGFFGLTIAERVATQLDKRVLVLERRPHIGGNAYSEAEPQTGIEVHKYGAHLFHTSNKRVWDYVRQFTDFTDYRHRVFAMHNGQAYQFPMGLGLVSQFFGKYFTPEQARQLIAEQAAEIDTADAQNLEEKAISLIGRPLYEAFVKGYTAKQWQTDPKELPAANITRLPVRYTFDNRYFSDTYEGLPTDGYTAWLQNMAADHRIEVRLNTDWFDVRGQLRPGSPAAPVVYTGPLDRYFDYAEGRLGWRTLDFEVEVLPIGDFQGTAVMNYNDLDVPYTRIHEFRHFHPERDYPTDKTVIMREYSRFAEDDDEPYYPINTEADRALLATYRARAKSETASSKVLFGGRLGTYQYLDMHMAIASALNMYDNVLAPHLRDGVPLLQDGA
Chain of Beta-adrenergic receptor kinase 1 (P25098 whole entry): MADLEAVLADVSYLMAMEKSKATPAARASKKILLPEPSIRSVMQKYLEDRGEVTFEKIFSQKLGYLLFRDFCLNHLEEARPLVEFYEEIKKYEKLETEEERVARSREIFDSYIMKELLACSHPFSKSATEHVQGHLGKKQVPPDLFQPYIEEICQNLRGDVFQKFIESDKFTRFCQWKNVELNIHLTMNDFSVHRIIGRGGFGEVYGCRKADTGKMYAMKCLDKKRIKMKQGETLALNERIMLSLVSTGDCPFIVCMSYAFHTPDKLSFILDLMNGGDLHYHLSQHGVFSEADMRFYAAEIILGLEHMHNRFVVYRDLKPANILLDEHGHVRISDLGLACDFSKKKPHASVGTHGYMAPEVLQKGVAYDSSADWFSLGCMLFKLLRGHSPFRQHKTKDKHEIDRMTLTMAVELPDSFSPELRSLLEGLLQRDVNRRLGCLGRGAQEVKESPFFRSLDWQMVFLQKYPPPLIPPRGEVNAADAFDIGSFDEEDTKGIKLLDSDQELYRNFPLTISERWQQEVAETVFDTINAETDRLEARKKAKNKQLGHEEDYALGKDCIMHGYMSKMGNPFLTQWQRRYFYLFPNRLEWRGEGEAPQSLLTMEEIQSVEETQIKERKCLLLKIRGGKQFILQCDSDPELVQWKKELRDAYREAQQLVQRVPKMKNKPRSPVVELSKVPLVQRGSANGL
Chain of Keap1/Nrf2 (Q16236 whole entry): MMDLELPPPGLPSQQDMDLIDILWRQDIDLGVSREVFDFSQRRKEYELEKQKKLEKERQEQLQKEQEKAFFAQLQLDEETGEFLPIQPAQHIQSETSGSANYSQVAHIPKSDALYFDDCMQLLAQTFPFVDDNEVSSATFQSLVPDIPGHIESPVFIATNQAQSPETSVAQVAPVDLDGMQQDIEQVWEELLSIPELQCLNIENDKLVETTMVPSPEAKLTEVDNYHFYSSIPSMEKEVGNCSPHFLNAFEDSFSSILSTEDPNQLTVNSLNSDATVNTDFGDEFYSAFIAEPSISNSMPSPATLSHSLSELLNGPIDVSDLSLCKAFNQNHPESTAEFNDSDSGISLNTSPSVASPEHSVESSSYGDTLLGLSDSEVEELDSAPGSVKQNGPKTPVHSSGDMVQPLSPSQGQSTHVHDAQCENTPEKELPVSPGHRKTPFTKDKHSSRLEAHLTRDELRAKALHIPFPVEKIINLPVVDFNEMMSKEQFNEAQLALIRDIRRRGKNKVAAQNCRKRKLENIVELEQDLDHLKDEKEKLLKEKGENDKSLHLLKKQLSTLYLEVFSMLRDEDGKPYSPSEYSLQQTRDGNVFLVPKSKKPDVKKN
Chain of Keap1/Nrf2 (Q14145 whole entry): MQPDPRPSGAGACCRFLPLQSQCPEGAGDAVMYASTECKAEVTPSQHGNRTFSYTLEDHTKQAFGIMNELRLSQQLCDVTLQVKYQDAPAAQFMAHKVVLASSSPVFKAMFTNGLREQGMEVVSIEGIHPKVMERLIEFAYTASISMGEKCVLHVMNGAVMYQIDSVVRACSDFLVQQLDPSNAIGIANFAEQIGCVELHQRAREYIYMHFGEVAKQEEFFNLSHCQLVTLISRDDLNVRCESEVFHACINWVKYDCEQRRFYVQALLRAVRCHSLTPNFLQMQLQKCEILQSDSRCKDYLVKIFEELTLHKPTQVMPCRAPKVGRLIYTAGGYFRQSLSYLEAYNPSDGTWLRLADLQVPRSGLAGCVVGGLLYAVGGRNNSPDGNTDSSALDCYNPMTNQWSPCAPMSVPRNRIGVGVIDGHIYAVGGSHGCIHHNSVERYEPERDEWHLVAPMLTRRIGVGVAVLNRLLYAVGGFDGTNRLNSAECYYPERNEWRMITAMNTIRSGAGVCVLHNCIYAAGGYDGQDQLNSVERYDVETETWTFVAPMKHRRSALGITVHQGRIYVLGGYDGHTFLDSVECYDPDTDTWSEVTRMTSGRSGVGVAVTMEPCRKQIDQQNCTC

Turning to `CCOc1ccc2noc3c2c1C(=O)c1ccccc1-3`, the values for the EC50 on Insulin-degrading enzyme [1], on Insulin-degrading enzyme [4] and with HEK293 [5] were > 54.7 µM (inactive), > 54.7 µM (inactive) and 4.95 µM (active), respectively. In addition, the IC50 with HEK293 [2] is > 89.1 µM (inactive); in [3] it was 87.4 µM (active). Moreover, the AC50 is 0.572 µM (active) at ORF 73 and 0.356 µM (active) in [6].

For `O=C(O)c1c2ccccc2nn1Cc1ccc(Cl)cc1`, in the assay with Candida albicans, the AC50 is 149 µM (active).

For the compound `CCOc1ccc(-c2cc(CCCC(=O)Nc3cccc(OC)c3)no2)cc1`, the figures for the IC50 (in assay [7]; in the assay with Jurkat) were > 80 µM (inactive) and 9.95 µM (active), respectively. Moreover, the EC50 was 0.24 µM (active) in assay [8], 7.56 µM (active) in assay [12] and 3.89 µM (active) in [13]. For the same compound, the AC50 in [9] was 2.45 µM (active); in [10], 55.4 µM (active); in assay [11] it was 58.9 µM (active).

In the case of `COc1ccc(CCNC(=O)CCS(=O)(=O)c2ccc(Br)cc2)cc1OC`, the EC50 in [14] is 14.9 µM (active).

Regarding `Oc1ccc2nnc3c(Br)cnn3c2c1`, the AC50 on Keap1/Nrf2 is 16.1 µM (active); on ORF 73 it was 6.64 µM (active); in assay [15], 1.11 µM (active). The values for the IC50 at Beta Lactamase and with CHO were 6.63 µM (active) and > 49.8 µM (inactive), respectively.
